Source: patent publication US20050288259A1, “Composition” (priority 2002, published 2005)

How the values were obtained:
[1] = test system: L. cuprina diflubenzuron-resistant strain (Emmaville); test: In vitro first stage larvae exposure, prevention of adult fly emergence, diflubenzuron-resistant strain; design: species or system Lucilia cuprina
From the text: Dicyclanil and diflubenzuron belong to different chemical families but are loosely grouped into a large class commonly known as “insect growth regulators”. Importantly both compounds interfere differently with the various development stages of insects. […] The invention makes use of the fact that dicyclanil will control the strains of blowfly that diflubenzuron is ineffective against.
Fly larvae belonging to a diflubenzuron-susceptible strain (LS) and a diflubenzuron-resistant strain (Emmaville) of L. cuprina are tested. First stage larvae are exposed to differing concentrations (aimed to achieve 0-100% prevention of adult fly emergence) of dicyclanil, diflubenzuron or a combination of the two actives (at the ratio used in the invention). The number of larvae forming pupae and the number of pupae producing viable adult flies are recorded. The level of diflubenzuron resistance in the Emmaville strain prevents achieving complete inhibition of adult fly emergence with diflubenzuron. Maximum mortality is 41% at 300 mg diflubenzuron/kg. The limit of solubility of diflubenzuron precludes the testing of higher concentrations.

[2] = Tissue residue study in sheep; assay type: in vivo; details: 2, 3, 4, 5, 6 or 17 weeks after treatment with the invention; none above Limit of Quantitation
Protocol: Tissue residue studies are carried out to determine the period after treatment where the produce of treated animals cannot be used for human consumption. The proposed maximum dose rate for the invention is used in this evaluation. Sheep are treated with the invention at the commencement of the study and at pre-defined intervals thereafter, groups of sheep are humanely sacrificed and the appropriate target tissues (liver, kidney, muscle, fat) are recovered and subsequently analyzed (under Good Laboratory Practice conditions) for the presence of active ingredients (and their metabolites if necessary).
The residue definition for dicyclanil in Australia is the sum of dicyclanil and its metabolite CGA 297′107. Considering this, in the course of this study the mean maximum residue concentrations were detected at two and three weeks post-treatment.
The residue definition for diflubenzuron in Australia is expressed as only diflubenzuron. In this study there were no detectable residues in individual tissues (liver, kidney, subcutaneous fat, renal fat) from any animal above the Limit of Quantitation (0.025 mg/kg) at 2, 3, 4, 5, 6 or 17 weeks after treatment.

SMILES	Emmaville strain response to dicyclanil ([1]; Emmaville strain compared with LS)	diflubenzuron residues in individual tissues (liver, kidney, subcutaneous fat, renal fat) [2] [mg/kg]	Maximum mortality ([1]; Emmaville strain, 300 mg diflubenzuron/kg) [%]
N#Cc1c(N)nc(NC2CC2)nc1N [dicyclanil, 4,6-diamino-2-cyclopropylaminopyrimidine-5-carbonitrile]	typical of a susceptible strain	–	–
O=C(NC(=O)c1c(F)cccc1F)Nc1ccc(Cl)cc1 [diflubenzuron, 1-(4-chlorophenyl)-3-(2,6-difluorobenzoyl)urea]	–	< 0.025	41
